# US7625948B2, “Ester compound and medicinal use thereof” (Japan Tobacco Inc., priority 2002, dated 2009)
# Read-outs that look alike come from different tables or passages of the source.
# Columns and labels:
# [1] = tested on: HepG2 cells; assay: Test Example 2: inhibition of apolipoprotein B secretion from HepG2 cells, ELISA (also used for metabolites in Test Example 8); assay type: cell-based; conditions: Homo sapiens
# Method in brief: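 HepG2 cells cultured 24 h, then exposed 24 h to compounds or metabolites in medium with 0.5% DMSO. Secreted apo B in supernatant quantified by sandwich ELISA (HRP, ABTS, 405 nm) against purified human apo B standard; % inhibition vs DMSO group, IC50 derived.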
# [2] = target: T1, Microsomal triglyceride transfer protein (MTP) from bovine liver (Bos taurus, UniProt P55156); assay: Test Example 1: inhibition of interliposomal triglyceride (TG) transfer activity by MTP (also used for metabolites in Test Example 8); assay type: biochemical
# T1 construct: from tissue; host or cells: bovine liver
# T1 sequence (P55156 12-887): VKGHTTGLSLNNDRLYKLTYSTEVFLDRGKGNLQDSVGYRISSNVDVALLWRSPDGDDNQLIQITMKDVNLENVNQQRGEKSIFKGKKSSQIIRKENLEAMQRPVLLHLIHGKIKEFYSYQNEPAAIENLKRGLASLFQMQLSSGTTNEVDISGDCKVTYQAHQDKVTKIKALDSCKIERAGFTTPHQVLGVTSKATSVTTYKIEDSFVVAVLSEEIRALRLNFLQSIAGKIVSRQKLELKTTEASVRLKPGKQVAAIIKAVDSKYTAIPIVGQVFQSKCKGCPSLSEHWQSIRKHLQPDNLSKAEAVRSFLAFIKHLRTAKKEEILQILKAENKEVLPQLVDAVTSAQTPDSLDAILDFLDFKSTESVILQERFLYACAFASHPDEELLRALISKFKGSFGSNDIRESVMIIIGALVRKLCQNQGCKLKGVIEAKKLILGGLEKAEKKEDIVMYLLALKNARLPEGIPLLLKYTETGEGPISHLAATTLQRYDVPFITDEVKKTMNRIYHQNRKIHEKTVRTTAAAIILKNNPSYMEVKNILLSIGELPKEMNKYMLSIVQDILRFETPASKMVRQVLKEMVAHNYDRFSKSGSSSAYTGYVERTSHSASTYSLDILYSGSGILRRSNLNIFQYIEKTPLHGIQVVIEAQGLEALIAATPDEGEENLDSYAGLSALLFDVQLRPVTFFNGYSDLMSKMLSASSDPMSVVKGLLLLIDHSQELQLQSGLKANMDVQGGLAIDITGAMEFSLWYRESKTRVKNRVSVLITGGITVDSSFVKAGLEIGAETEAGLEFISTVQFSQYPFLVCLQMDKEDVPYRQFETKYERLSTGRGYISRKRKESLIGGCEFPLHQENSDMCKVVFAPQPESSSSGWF
# T1 sequence (P05307 21-510 partner): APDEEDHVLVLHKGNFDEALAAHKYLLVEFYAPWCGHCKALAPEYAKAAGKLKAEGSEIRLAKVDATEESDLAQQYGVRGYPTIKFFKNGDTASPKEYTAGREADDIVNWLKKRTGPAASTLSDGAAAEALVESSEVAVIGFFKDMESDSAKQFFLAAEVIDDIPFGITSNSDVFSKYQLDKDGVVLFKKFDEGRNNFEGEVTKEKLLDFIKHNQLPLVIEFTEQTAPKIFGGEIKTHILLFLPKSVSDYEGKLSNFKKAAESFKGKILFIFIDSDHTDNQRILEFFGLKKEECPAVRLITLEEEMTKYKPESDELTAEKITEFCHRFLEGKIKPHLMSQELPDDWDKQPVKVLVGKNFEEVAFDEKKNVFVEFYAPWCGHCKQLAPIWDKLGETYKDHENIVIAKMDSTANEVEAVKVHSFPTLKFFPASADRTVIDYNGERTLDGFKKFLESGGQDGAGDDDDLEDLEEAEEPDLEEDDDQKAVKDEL
# Method: Inhibition of Interliposomal Triglyceride (TG) Transfer Activity by MTP
# Microsomal triglyceride transfer protein (MTP) from bovine liver was partially purified in such a way described below. A buffer (50 mM Tris, 250 mM sucrose, 1 mM EDTA, 0.02% NaN3 (pH 7.4)) for making a homogenate preparation was added to bovine liver, and the mixture was homogenated under ice-cooling, then centrifuged at 10,000×g (4° C., 30 minutes). The supernatant was adjusted to pH 5.1 with hydrochloric acid, and stirred for 30 minutes. The solution was further centrifuged at 10,000×g (4° C., 30 minutes), and 1 mM Tris buffer was added to the precipitated residue, and the mixture was adjusted to pH 8.6 with sodium hydroxide. After addition of 2.7M ammonium sulfate solution, the mixture was stirred for 30 minutes, then centrifuged at 10,000×g (4° C., 40 minutes). The resulting supernatant was served as a crude extraction fraction of MTP and stored at −80° C. under freezing. In its practical use, the crude extraction fraction of MTP was purified by column chromatography on diethylaminoethyl (DEAE) Sepharose using FPLC (Fast Performance Liquid Chromatography) system, and the purified MTP was used for the test.
# Small unilamellar-vesicle (SUV) liposome (donor, 0.25 mol % triolein, 5 mol % cardiolipin) labeled with ^14C-triolein and non-labeled SUV liposome (acceptor, 0.25 mol % triolein) were prepared. A fixed amount of donor and acceptor, and MTP were mixed with a sample dissolved in DMSO or with DMSO. The mixture was incubated in a 15 mM Tris hydrochloride buffer (pH 7.4) containing 40 mM sodium chloride, 1 mM EDTA (ethylenediaminetetraacetic acid), 0.02% NaN3 and 0.5% bovine serum albumin at 37° C. for one hour. After completion of the incubation, a suspension of DEAE cellulose (50% v/v) in 15 mM Tris hydrochloride buffer (pH 7.4) was added to the above solution, and the mixture was centrifuged to separate the donor and the acceptor. The radioactivity in the acceptor was measured by liquid scintillation counter. The value obtained by subtracting the radioactivity in the blank from the amount of radioactivity in the acceptor of a DMSO group was determined as MTP-mediated TG transfer activity, and it was compared with the value obtained by subtracting the radioactivity in the blank from the radioactivity in a sample group. The blank was prepared by adding 15 mM Tris-HCl buffer (pH 7.4) in place of MTP. Inhibition rate (%) was calculated from the values obtained according to the following equation.
# Inhibition rate (%)=100×(1 minus ((radioactivity of sample group minus radioactivity of blank group)/(radioactivity of DMSO group minus radioactivity of blank group))).
# 50% Inhibition rate (IC50) was determined on the basis of the above equation.
# Inhibitory Activity on MTP and apo B Secretion Inhibition by Metabolites
# In a similar manner to Test Examples 1 and 2, the activity of metabolites was assayed.
# [3] = 24 hours, apo B in supernatant by ELISA, read-out: Test Example 2 Inhibition of apo B secretion IC50
# [4] = MTP-mediated 14C-triolein transfer between liposomes, 37° C., one hour, read-out: Test Example 1 MTP inhibition IC50
Structure (SMILES),"IC50 [1, 3]","IC50 [2, 4]","IC50 ([1]; main metabolites of the compounds (Test Example 8), read-out: Inhibition of apo B secretion IC50)","IC50 ([2]; main metabolites of the compounds (Test Example 8), read-out: MTP inhibition IC50)"
"O=C(N[C@H]1CC[C@H](C(=O)OCCC2(C(=O)NCC(F)(F)F)c3ccccc3-c3ccccc32)CC1)c1ccccc1-c1ccc(C(F)(F)F)cc1 [Example 7, Trans-4-[(4′-trifluoromethylbiphenyl-2-carbonyl)amino]cyclohexanecarboxylic acid 2-[9-(2,2,2-trifluoroethylcarbamoyl)-9H-fluoren-9-yl]ethyl ester]",60 nM,4.97 nM,,
CCNC(=O)C(COC(=O)Cc1ccc(NC(=O)c2ccccc2-c2ccc(Cl)cc2)cc1)(C(=O)NCC)c1ccccc1 [Example 1-70],270 nM,1.6 nM,,
O=C(Cc1ccc(OC(=O)c2ccccc2-c2ccc(C(F)(F)F)cc2)cc1)OCC(C(=O)NCC(F)(F)F)(C(=O)NCC(F)(F)F)c1ccccc1 [Example 1-28],640 nM,35 nM,,
CCOC(=O)C(CO)(C(=O)OCC)c1ccccc1,,,> 10000 nM,> 1000 nM
"CCOC(=O)C(COC(=O)Cn1ccc2c(NC(=O)c3ccccc3-c3ccc(C(F)(F)F)cc3)cccc21)(C(=O)OCC)c1ccccc1 [Example 9, 2-Phenyl-2-(2-{4-[(4′-trifluoromethylbiphenyl-2-carbonyl)amino]indol-1-yl}acetoxymethyl)malonic acid diethyl ester]",260 nM,11 nM,,
CCOC(=O)C(COC(=O)Cc1ccc(NC(=O)c2ccccc2-c2ccc(C(F)(F)F)cc2)cc1C)(C(=O)OCC)c1ccccc1 [Example 1-27],26 nM,7 nM,,
CCNC(=O)C(COC(=O)Cc1ccc(NC(=O)c2ccccc2-c2ccc(C(F)(F)F)cc2)c(C(=O)N(C)C)c1)c1ccccc1 (centres unmarked) [Example 2-21],8.9 nM,1.8 nM,,
CCNC(=O)C(COC(=O)Cc1ccc(NC(=O)c2ccccc2-c2ccc(Cl)c(Cl)c2)cc1)(C(=O)NCC)c1ccccc1 [Example 1-71],120 nM,1.8 nM,,
CCOC(=O)C(COC(=O)Cc1ccc(NC(=O)c2ccccc2-c2ccc(C(F)(F)F)cc2)cc1C(F)(F)F)(C(=O)OCC)c1ccccc1 [Example 1-34],100 nM,23 nM,,
CCOC(=O)C(COC(=O)Cc1ccc(NC(=O)c2ccccc2-c2ccc(C(F)(F)F)cc2)c(OC)c1)(C(=O)OCC)c1ccccc1 [Example 3-4],13 nM,2.1 nM,,
CCOC(=O)C(COC(=O)Cc1ccc(NC(=O)c2ccccc2-c2ccc(C(F)(F)F)cc2)cc1)(C(=O)OCC)c1ccccc1 [Example 1-9],3.2 nM,5.95 nM,,
"CCOC(=O)C(CCOC(=O)Cc1cccc(NC(=O)c2ccccc2-c2ccc(C(F)(F)F)cc2)c1C)(C(=O)OCC)c1ccccc1 [Example 5, 2-[2-(2-{2-methyl-3-[(4′-trifluoromethylbiphenyl-2-carbonyl)amino]phenyl}acetoxy)ethyl]-2-phenylmalonic acid diethyl ester]",19 nM,3.1 nM,,
"O=C(OCCC1(C(=O)NCC(F)(F)F)c2ccccc2-c2ccccc21)c1ccc(NC(=O)c2ccccc2-c2ccc(C(F)(F)F)cc2)cc1 [Example 6, 4-[(4′-Trifluoromethylbiphenyl-2-carbonyl)amino]benzoic acid 2-[9-(2,2,2-trifluoroethylcarbamoyl)-9H-fluoren-9-yl]ethyl ester]",58.3 nM,3.47 nM,,
CNC(=O)C(COC(=O)Cc1ccc(NC(=O)c2ccccc2-c2ccc(C(F)(F)F)cc2)cc1)(C(=O)NC)c1ccccc1 [Example 1-36],150 nM,2 nM,,
CCNC(=O)C(COC(=O)Cc1ccc(OC(=O)c2ccccc2-c2ccc(C(F)(F)F)cc2)cc1)(C(=O)NCC)c1ccccc1 [Example 1-39],160 nM,0.66 nM,,
CCNC(=O)C(COC(=O)Cc1ccc(NC(=O)c2ccccc2C2CCCCC2)cc1)(C(=O)NCC)c1ccccc1 [Example 1-69],90 nM,9.1 nM,,
"CCOC(=O)C(COC(=O)Cn1c(C)nc2c(NC(=O)c3ccccc3-c3ccc(C(F)(F)F)cc3)cccc21)(C(=O)OCC)c1ccccc1 [Example 9-2, 2-(2-{2-methyl-4-[(4′-trifluoromethylbiphenyl-2-carbonyl}amino]benzimidazol-1-yl}acetoxymethyl)-2-phenyl-malonic acid diethyl ester]",450 nM,4.2 nM,,

# Further lines, results first:
"IC50 [1, 3]","IC50 [2, 4]","IC50 ([1]; main metabolites of the compounds (Test Example 8), read-out: Inhibition of apo B secretion IC50)","IC50 ([2]; main metabolites of the compounds (Test Example 8), read-out: MTP inhibition IC50)",Structure (SMILES)
170 nM,2.9 nM,,,CCOC(=O)C(CCOC(=O)c1ccc(NC(=O)c2ccccc2-c2ccc(C(F)(F)F)cc2)cc1Cl)(C(=O)OCC)c1ccccc1 [Example 6-16]
300 nM,6.2 nM,,,CCNC(=O)C(CCCOC(=O)Cc1cccc(NC(=O)c2ccccc2-c2ccc(C(F)(F)F)cc2)c1C)(C(=O)NCC)c1ccccc1 [Example 5-10]
57 nM,2 nM,,,CCOC(=O)C(CCOC(=O)c1ccc(NC(=O)c2ccccc2-c2ccc(C(F)(F)F)cc2)c(C)c1)(C(=O)OCC)c1ccccc1 [Example 6-15]
237 nM,16.2 nM,,,CCOC(=O)C(CCOC(=O)C1CCC(NC(=O)c2ccccc2-c2ccc(C(F)(F)F)cc2)CC1)(C(=O)OCC)c1ccccc1 (centres unmarked) [Example 7-5]
420 nM,2.3 nM,,,CCOC(=O)C(CCOC(=O)c1ccc(OC(=O)c2ccccc2-c2ccc(C(F)(F)F)cc2)cc1)(C(=O)OCC)c1ccccc1 [Example 6-17]
210 nM,20 nM,,,CCOC(=O)C(COC(=O)Cn1cnc2c(NC(=O)c3ccccc3-c3ccc(C(F)(F)F)cc3)cccc21)(C(=O)OCC)c1ccccc1 [Example 9-11]
26 nM,2.46 nM,,,O=C(N[C@H]1CC[C@@H](C(=O)OCCC2(C(=O)NCC(F)(F)F)c3ccccc3-c3ccccc32)CC1)c1ccccc1-c1ccc(C(F)(F)F)cc1 [Example 7-2]
630 nM,50 nM,,,O=C(OCCC(C(=O)NCC(F)(F)F)(c1ccccc1)c1ccccc1)c1ccc(NC(=O)c2ccccc2-c2ccc(C(F)(F)F)cc2)cc1 [Example 6-8]
